# According to patent publication US20090004694A1, “Sequence of Thermotolerant L-Rhamnose Isomerase Gene and Use of the Same” (National University Corporation Kagawa University, priority 2004, published 2009):
# Where “and” joins values, the source holds several entries; their conditions need not be identical. Equal entries are not always repeated. Where two headings read alike, the source gives them in different places.
# T1: L-rhamnose isomerase produced by E. coli (Escherichia coli, UniProt P32170)
# T1 sequence (P32170 1-419): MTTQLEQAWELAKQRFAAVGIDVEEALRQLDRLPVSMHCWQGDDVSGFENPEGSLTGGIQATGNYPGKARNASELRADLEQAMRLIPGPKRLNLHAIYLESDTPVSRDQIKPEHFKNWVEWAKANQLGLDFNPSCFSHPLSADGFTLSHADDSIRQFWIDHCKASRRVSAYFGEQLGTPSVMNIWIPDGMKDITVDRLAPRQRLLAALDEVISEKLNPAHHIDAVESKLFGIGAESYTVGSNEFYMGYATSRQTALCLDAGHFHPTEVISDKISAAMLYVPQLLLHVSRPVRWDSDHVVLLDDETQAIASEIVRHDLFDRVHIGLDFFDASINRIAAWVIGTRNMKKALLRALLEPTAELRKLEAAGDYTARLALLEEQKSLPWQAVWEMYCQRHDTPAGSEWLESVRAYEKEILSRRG
# B1: L-rhamnose isomerase derived from Bacillus pallidus: thermotolerant L-rhamnose isomerase derived from Bacillus pallidus strain 14a (FERM AP-20172), amino acid sequence SEQ ID NO: 2 (protein, listed as Bacillus pallidus)
# chain: MVIKESFEIARQVYEKWGINIEEVLENLQQASISIHCWQGDDVKGFEADASELSGGIDVTGNYPGKARNAEELRQDLEKALSLIPGKHRVNLHAIYAETNGEKVERDQLEPKHFENWVNWAKKIGIGLDFNPTLFSHEKAADGLTLSHPDPGIREFWINHCIRSRKIGEYFGKELGTPCLTNIWIPDGYKDIPSDRLTPRKRLKESLDKIFSVEINEKYNLDAVESKLFGIGSESFVVGSHEFYLGYALQNNKIYLLDTGHFHPTETVSNKISSILLYSDRLALHVSRPVRWDSDHVVILDDELREIALEIVRNDALHKVLIGLDFFDASINRLAAWVIGTRNMIKALLYAMLMPHEYLKQLQEKGNFTERLAVMEEFKTYPFGAIWDYYCEKMNVPVREEWLKEIQKYEEEVLTKRQ
# B2: L-rhamnose isomerase produced by Pseudomonas stutzeri LL172: known L-rhamnose isomerase derived from Pseudomonas stutzeri LL172 (FERM BP-08593), amino acid sequence SEQ ID NO: 4 (protein, listed as Pseudomonas stutzeri)
# chain: MAEFRIAQDVVARENDRRASALKEDYEALGANLARRGVDIEAVTAKVEKFFVAVPSWGVGTGGTRFARFPGTGEPRGIFDKLDDCAVIQQLTRATPNVSLHIPWDKADPKELKARGDALGLGFDAMNSNTFSDAPGQAHSYKYGSLSHTDAATRAQAVEHNLECIEIGKAIGSKALTVWIGDGSNFPGQSNFTRAFERYLSAMAEIYKGLPDDWKLFSEHKMYEPAFYSTVVQDWGTNYLIAQTLGPKAQCLVDLGHHAPNTNIEMIVARLIQFGKLGGFHFNDSKYGDDDLDAGAIEPYRLFLVFNELVDAEARGVKGFHPAHMIDQSHNVTDPIESLINSANEIRRAYAQALLVDRAALSGYQEDNDALMATETLKRAYRTDVEPILAEARRRTGGAVDPVATYRASGYRARVAAERPASVAGGGGII
# Legend:
# [1] = tested on: L-rhamnose isomerase produced by Pseudomonas stutzeri LL172; conditions: cited from earlier work; for effect of chelating agent on activity: coexisting during the measurement of the activity
# [2] = tested on: L-rhamnose isomerase derived from Bacillus pallidus strain 14a (IPOD FERM AP-20172); assay: Substrate specificity (relative activity) of the purified enzyme, cysteine-carbazole method; assay type: biochemical; conditions: activity against L-rhamnose assumed to be 100%; 50° C., 10 minutes, glycine-NaOH buffer pH 9.0
# Protocol: (§1) The method for measuring the substrate specificity (relative activity (%)) will be described.
# (§2) A reaction solution having a composition of 50 μl of the purified enzyme solution, 50 μl of 0.05 M of each substrate sugar, 50 μl of 0.01 M manganese chloride and 0.05 M glycine-NaOH buffer (pH 9.0) was used. The reaction was carried out at a reaction temperature of 50° C. for 10 minutes. The produced ketose corresponding to the respective substrates was measured by the cysteine-carbazole method, and the activity that produces 1 μmol of the ketose per minute was measured for the respective substrates.
# [3] = tested on: L-rhamnose isomerase produced by Pseudomonas stutzeri LL172 (IPOD FERM BP-08593); assay: as above; assay type: biochemical; conditions: activity against L-rhamnose assumed to be 100%; 50° C., 10 minutes, glycine-NaOH buffer pH 9.0
# Protocol: as §1, §2
# [4] = tested on: L-rhamnose isomerase derived from Bacillus pallidus strain 14a; assay: Effect of metal ion on enzyme activity; assay type: biochemical; conditions: 1 mM cobalt ion
# [5] = Solubility of D-psicose and D-allose in water and alcohols; assay type: physicochemical
# Source text: The principle of the collection by separation will be briefly described. […] D-psicose has a solubility of about 10% in methanol and ethanol, however, D-allose is insoluble in either alcohol. The temperature has an influence on the solubility. The solubility of D-psicose in both alcohols is increased at a high temperature. Further, when the alcohol concentration is high, D-allose is likely to be crystallized. It is a separation technique utilizing the above physical properties. It is a production method of high-purity D-allose in which by allowing an alcohol (ethanol and/or ethanol) to act on, D-allose which is insoluble in the alcohol (ethanol and/or ethanol) is crystallized and the crystal of D-allose is separated.
# [6] = molecular target: T1, L-rhamnose isomerase produced by E. coli; conditions: cited from earlier work
# [7] = Optimal pH and working pH of L-rhamnose isomerase; assay type: biochemical; conditions: 50° C., L-rhamnose as substrate, purified enzyme
# Protocol: The optimal pH of L-rhamnose isomerase derived from Bacillus pallidus was examined. With the use of the purified enzyme, a reaction was carried out at 50° C. using L-rhamnose as a substrate at each pH value.
# The optimal pH of L-rhamnose isomerase derived from P. stutzeri was examined. […] With regard to the activity thereof, the optimal pH was present in a range of from pH 7 to around pH 9.
# [8] = Optimal and working temperature of L-rhamnose isomerase; assay type: biochemical; conditions: reaction time of 10 minutes
# [9] = Temperature stability of L-rhamnose isomerase; assay type: physicochemical; conditions: heat treatment condition of 1 hour
# [10] = known properties (Non-patent document 1 / Patent document 1); cited from earlier work
# [11] = reaction time 10 minutes; cited from earlier work
# [12] = cited from earlier work
molecule,measurement,setting,value
O=C(O)CN(CCN(CC(=O)O)CC(=O)O)CC(=O)O [EDTA],effect of chelating agent on activity,[1],hardly inhibited
C[C@H](O)[C@H](O)[C@@H](O)[C@@H](O)C=O [L-rhamnose],Enzyme derived from B. Pallidus (relative activity %),[2],100%
same,Enzyme derived from P stutzeri (relative activity %),[3],100%
O=C[C@H](O)[C@H](O)[C@@H](O)[C@@H](O)CO [L-mannose],Enzyme derived from B. Pallidus (relative activity %),[2],11%
same,Enzyme derived from P stutzeri (relative activity %),[3],33.4%
[Co+2] [cobalt ion],activity inhibited by metal ion,[4],About 30%
same,activity inhibited by metal ion,[1]; 1 mM cobalt ion,About 30%
O=C[C@@H](O)[C@@H](O)[C@H](O)CO [D-lyxose],Enzyme derived from B. Pallidus (relative activity %),[2],0.14%
same,Enzyme derived from P stutzeri (relative activity %),[3],0.006%
O=C(CO)[C@H](O)[C@H](O)[C@H](O)CO [D-psicose],solubility in methanol and ethanol,[5]; methanol and ethanol,about 10%
same,solubility in water,[5]; water,readily soluble
same,activity between D-psicose and D-allose,[6],hardly exhibits an activity
O=C[C@H](O)[C@H](O)[C@H](O)[C@H](O)CO [D-allose],Enzyme derived from B. Pallidus (relative activity %),[2],5.5% and 5.6%
same,Enzyme derived from P stutzeri (relative activity %),[3],7.2%
same,solubility in methanol and ethanol,[5],insoluble
same,solubility in water,[5],readily soluble
same,activity between D-psicose and D-allose,[6],hardly exhibits an activity
O=C[C@H](O)[C@H](O)[C@@H](O)CO [L-lyxose],Enzyme derived from B. Pallidus (relative activity %),[2],23.9%
same,Enzyme derived from P stutzeri (relative activity %),[3],43.9% and 43.7%
O=C(O)CN(CCOCCOCCN(CC(=O)O)CC(=O)O)CC(=O)O [EGTA],effect of chelating agent on activity,[1],hardly inhibited
B1,pH at which the highest activity was exhibited,[7],6
same,optimal temperature (highest enzymatic activity),[8],80 °C
same,optimal temperature higher compared with the L-rhamnose isomerase of LL172,[8],20 °C
same,optimal temperature higher compared with the L-rhamnose isomerase of LL172,[8]; listed as thermotolerant L-rhamnose isomerase,about 20 °C
same,stable temperature higher compared with the L-rhamnose isomerase of LL172,[9],10 °C
same,temperature stability (stable up to),[9],up to 50 °C
B2,pH at which the highest activity was exhibited,[7],9
same,optimal temperature (highest enzymatic activity),[8],60 °C
same,temperature stability (stable up to),[9],40 °C
same,optimal pH,[10],9.0
same,temperature of highest activity,[11],60 °C
same,remaining activity,[12]; 50° C. for 10 minutes,≥ 90%
same,temperature stability (stable at),[12]; 10 minutes,40 °C
